According to patent publication US11207301B2, “Sphingosine 1 phosphate receptor agonists for neuroprotection” (RECEPTOS LLC, priority 2017, dated 2021):

How the values were obtained:
[1] = test system: ERK phosphorylation in primary mouse astrocytes; test: ERK phosphorylation in primary mouse cortical astrocytes (AlphaLISA SureFire Ultra); assay type: cell-based; conditions: Astrocyte, 10 min, 10-minute exposure
Experimental: (§1) For the experiments using mouse and human primary astrocytes, ten-point concentration-response curves (90 nM-4.57 pM or 30 nM-1.52 pM) were generated for AKT and/or ERK phosphorylation in primary human and mouse cortical astrocytic cultures in response to a 10-minute treatment with ozanimod, Compound 3, Compound 1, or FTY720-P. AKT and ERK phosphorylation were quantified using AlphaLISA SureFire Ultra Assay kits and the EnVision Plate Reader. AKT and ERK phosphorylation within treated astrocytes were expressed as the mean change in signal intensity compared to the dimethyl sulfoxide (DMSO) vehicle and the half maximal effective concentration (EC50) was determined using non-linear regression.
Timed pregnant (E16) C57BL/6J female mice arrive to the test facility on a weekly basis and were housed and cared for according to appropriate protocols for this model. Primary mouse cortical astrocytes are harvested from P0-P2 pups. The newly born animals were deeply anesthetized on ice, decapitated, and the brains were rapidly removed and stored in ice-cold NbAstro media (BrainBits, LLC). Cells were dissociated from freshly dissected cortices by mechanical disruption in the presence of trypsin and DNase. Cells were put into a PDL coated T75 tissue culture flask containing 16 mL NbAstro Media and incubated at 37° C. 5% CO2. Once the mouse astrocytes had reached confluency in the T75 flask, they were detached using TripLE detachment reagent, pelleted at 300×g, expanded into two T225 PDL coated tissue culture flasks containing 40 mL of NbAstro and incubated at 37° C. 5% CO2. […]
Cell lysis and detection of pERK were performed according to the PerkinElmer AlphaLISA SureFire Ultra p-ERK1/2 (Thr202/TYR 204) assay protocol. […] The plates were read on the EnVision Plate Reader to assess the pERK levels.
(§2) The AKT and ERK phosphorylation data, collected by a Perkin Elmer EnVision Microplate Reader, was analyzed by non-linear regression (GraphPad Prism, version 7.03) to determine the EC50 values.

[2] = test system: ERK phosphorylation in primary human astrocytes; test: ERK phosphorylation in primary human cortical astrocytes (AlphaLISA SureFire Ultra); assay type: cell-based; conditions: Astrocyte, 10 min, 10-minute exposure, n=3-5
Experimental: as §1
Primary human astrocytes were purchased from ScienCell Research Laboratories, Inc. and cultured according to the supplier's protocol. The astrocytes were obtained from the human cerebral cortex, cryopreserved at passage one, and delivered frozen. The frozen vials of cells were gently thawed in a 37° C. water bath. Once the contents of the vial were completely thawed, the cell solution was dispensed into a poly-L-lysine (PLL) coated T75 tissue culture flask with 16 mL of human Astrocyte Media, (ScienCell Research Laboratories, Inc.) and incubated at 37° C. 5% CO2. Once the human astrocytes had reached confluency in the T75 flask, they were detached using trypsin/EDTA 0.25%, pelleted at 300×g, split into two PLL coated T225 tissue culture flasks in 40 mL of astrocyte media, and incubated at 37° C. 5% CO2. Once the astrocytes reached confluency in the T225 flasks, they were detached using trypsin/EDTA 0.25% solution, pelleted at 300×g, plated into poly-D-lysine (PDL) coated 96-well plates at a density of 10,000 cells per well in 200 μL human Astrocyte Media, and incubated at 37° C. 5% CO2. Half of the media was replenished every 3-4 days. After 5-7 days of incubation, the P2 human astrocyte plates were utilized for the pERK and pAKT assays.
Cell lysis and detection of pERK were performed according to the PerkinElmer AlphaLISA SureFire Ultra p-ERK1/2 (Thr202/TYR 204) assay protocol. Astrocytes were lysed in the 96-well plate following a 10 minute incubation with compounds with shaking at RT. The astrocytic lysates (10 μL/well) were transferred into a 384-well OptiPlate. As specified by the assay protocol, an acceptor bead mix and a donor bead mix (5 μL/well for each) were added to the plate under subdued light. Plates were sealed with adhesive plate seals and incubated in the dark for 2 hours at RT. The plates were read on the EnVision Plate Reader to assess the pERK levels.
as §2

| EC50 [1] [nM] | EC50 [2] [nM] | SMILES |
| --- | --- | --- |
| 0.87 | 2.12 | CC(C)Oc1ccc(-c2nc(-c3cccc4c3CCC4=O)no2)cc1C#N [Compound 1, 2-isopropoxy-5-(3-(1-oxo-2,3-dihydro-1H-inden-4-yl)-1,2,4-oxadiazol-5-yl)benzonitrile] |
| 2.42 | 1.93 | CC(C)Oc1ccc(-c2nc(-c3cccc4c3CC[C@@H]4NCCO)no2)cc1C#N [Ozanimod] |
